The compounds below were run against PDE 4 (cytosolic fraction from human polymorphonuclear lymphocytes (PMNLs)) (assay: Inhibition of phosphodiesterase 4 (SPA assay, [3H]-cAMP substrate)). Conditions: enzyme preparation from human PMNLs; 0.5 μM [3H]-cAMP; 37° C., 30 minutes.
Type: biochemical
Experimental: The PDE 4 activity is determined using enzyme preparations from human polymorphonuclear lymphocytes (PMNLs).
Human blood (buffy coats) was anticoagulated with citrate. The platelet-rich plasma in the supernatant is separated from the erythrocytes and leucocytes by centrifuging at 700×g for 20 minutes at room temperature (RT). The PMNLs for the PDE 4 determination are isolated by means of a subsequent dextran sedimentation followed by a gradient centrifugation using Ficoll-Paque. After the cells have been washed twice, the erythrocytes which are still present are lysed within 6 minutes by adding 10 ml of hypotonic buffer (155 mM NH4Cl, 10 mM NaHCO3, 0.1 mM EDTA, pH=7.4) at 4° C. The PMNLs, which are still intact, are washed a further two times with PBS and lysed by ultrasonication. The supernatant obtained after centrifuging at 48 000×g at 4° C. for one hour contains the cytosolic PDE 4 fraction and is used for the PDE 4 measurements.
The phosphodiesterase activity is measured using a modified Amersham Pharmacia Biotech method, i.e. an SPA (scintillation proximity assay) assay. The reaction mixtures contain buffer (50 mM tris-HCl (pH 7.4), 5 mM MgCl2, 100 μM cGMP), varying concentrations of the inhibitors, and the corresponding enzyme preparation. The reaction is started by adding the substrate, i.e. 0.5 μM [^3H]-cAMP. The final volume is 100 μl. Test substances are prepared as stock solutions in DMSO. The concentration of DMSO in the reaction mixture is 1% v/v. This DMSO concentration has no effect on PDE activity. After the reaction has been started by adding the substrate, the samples are incubated at 37° C. for 30 minutes. The reaction is stopped by adding a defined quantity of SPA beads and the samples are measured in a beta counter after one hour. The nonspecific enzyme activity (i.e. the blank) is determined in the presence of 100 μM rolipram and subtracted from the test values. The incubation mixtures for the PDE 4 assay contain 100 μM cGMP in order to inhibit any contamination of PDE 3 which may be present.

Point of comparison: `O=C(Nc1c(Cl)cncc1Cl)C(=O)c1cn(Cc2ccc(O)cc2)c2c(O)cccc12` [Compound 22], IC50 3 nM. Against it:
- O=C(Nc1c(Cl)cncc1Cl)C(=O)c1cn(Cc2cccc([N+](=O)[O-])c2)c2c(O)cccc12 [Compound 7] — 1.5-fold lower, 2 nM
- O=C(Nc1c(Cl)cncc1Cl)C(=O)c1cn(Cc2ccc(F)cc2)c2c(O)cccc12 [Compound 5] — 5-fold higher, 15 nM
- CC(C)Cn1cc(C(=O)C(=O)Nc2c(Cl)cncc2Cl)c2cccc(O)c21 [Compound 15] — 6.7-fold higher, 20 nM
- O=C(Nc1c(Cl)cncc1Cl)C(=O)c1cn(Cc2c(F)cccc2F)c2c(O)cccc12 [Compound 8] — 1.5-fold lower, 2 nM
- O=C(Nc1c(Cl)cncc1Cl)C(=O)c1cn(CC2CC2)c2c(O)cccc12 [Compound 16] — 10-fold higher, 30 nM
- O=C(Nc1c(Cl)cncc1Cl)C(=O)c1cn(Cc2ccc(F)cc2)c2cccc(O)c12 [Compound 4] — 310-fold higher, 938 nM
- O=C(Nc1c(Cl)cncc1Cl)C(=O)c1cn(Cc2ccc(Cl)cc2)c2c(O)cccc12 [Compound 2, N-(3,5-dichloropyrdin-4-yl)-[1-(4-chlorobenzyl)-7-hydroxyindol-3-yl]glyoxylamide] — 1.5-fold lower, 2 nM
- O=C(Nc1c(Cl)cccc1Cl)C(=O)c1cn(Cc2ccc(F)cc2)c2c(O)cccc12 [Compound 17] — 47-fold higher, 141 nM
- O=C(Nc1c(Cl)cncc1Cl)C(=O)c1cn(Cc2ccccc2F)c2c(O)cccc12 [Compound 6] — 3-fold lower, 1 nM
